The source of these data is patent US7186565B2, “Sampling and toxicity monitoring device and method” (priority 2001, dated 2007).

SMILES strings stand for the structures. pEC50: −log10 of the molar value. Where two headings read alike, the source gives them in different places.

In data set [1] the test system is 7-ethoxyresorufin-o-deethylase (EROD) activity in a rainbow trout liver cell line (RTL-W1). Put plainly: Induction of EROD activity in RTL-W1 cells. The data set is classed as cell-based. Conditions: Oncorhynchus mykiss. Here is the method: For toxicity tests, reporter cells or molecules are preferably added to chambers in an appropriate culture medium. An appropriate liquid culture medium is one that will maintain reporter cell vitality (or reporter molecule integrity) and support expression of a chosen endpoint in the toxicological test. For example for the experiment depicted in FIG. 8, liver cells from rainbow trout (RTL-W1 cells) were added in Leibovitz' L-15 medium that contained 5% fetal bovine serum as a supplement (Bols et al., 1999). The reporters are left to desorb or interact with the chemicals at the sampler surface for a predetermined time. […] After a predetermined exposure time, the reporter cells are evaluated for the expression of toxicity. […] Other examples of toxicological endpoints would be the disruption of metabolic activity or the loss of cell membrane integrity in cultured cells, which can be measured using the fluorescent indicator dyes alamar Blue and CFDA-AM (Schirmer et al., 2000a/b), or the modulation of light emission in luminescent bacteria (Bitton and Koopman, 1992). Although not essential to the method, the arrangement of chambers in a multiwell plate format and the use of fluorescent indicator dyes or light emission is advantageous because of recent developments in automated fluorescence/luminescence multiwell plate readers. Plates with […] can be analyzed in seconds. […]

How the values of data set [2] were obtained: For these experiments fluoranthene was dissolved in the aqueous medium, L-15/ex, to yield 297 nM (60 ng/ml) of fluoranthene. The fluoranthene solution was added once to empty wells of tissue culture plates, and 10 min, 2, 4, and 24 h later, the medium was removed and culture wells extracted with methanol in order to solubilize fluoranthene that had adsorbed to the culture surface. The concentration of fluoranthene in the methanol extracts was subsequently determined by high performance liquid chromatography (HPLC) and expressed as a percentage of the initial concentration, 297 nM.

Turning to `c1ccc2cc3c(cc2c1)-c1cccc2cccc-3c12` [BkF, benzo[k]fluoranthene], the negative logarithm of the EC50 (pEC50) – broadly, the negative decadic logarithm of the EC50, by convention in mol/L – is 8.07 in data set [1] (BkF added in dissolved form to wells after cell attachment (conventional method), RTL-W1 cells, read-out: EC50 of EROD induction, dissolved BkF) and 7.98 in data set [1] (BkF adsorbed to polystyrene culture wells prior to cell attachment, RTL-W1 cells attached 24 h before EROD measurement, read-out: EC50 of EROD induction, sorbed BkF).
As to `c1ccc2c(c1)-c1cccc3cccc-2c13` [fluoranthene], in data set [2] (297 nM in L-15/ex, 10 min, 2, 4, 24 h), the “binding of fluoranthene by polystyrene of tissue culture plates” value is given as “high affinity”. In addition, the “time of exposure until sorption equilibrium is reached” value in data set [2] (single dose 297 nM (60 ng/ml) in L-15/ex in empty wells, methanol extract, HPLC) was “less than 24 h”.
